According to ChEMBL document CHEMBL5465560, “Selectivity Literature for EUbOPEN Chemogenomic Library” (2024):
One block for each compound: values may come before it.

How the values were obtained:
[1] = target: Fibroblast growth factor receptor 2 (Homo sapiens) (UniProt P21802); test: Selectivity interaction (KinomeScan (DiscoverX)) EUB0000607a FGFR2; conditions: at 10 µM
[2] = target: T1, cGMP-dependent protein kinase 1 (Homo sapiens) (UniProt Q13976); conditions: at 10 µM
T1 sequence (whole entry): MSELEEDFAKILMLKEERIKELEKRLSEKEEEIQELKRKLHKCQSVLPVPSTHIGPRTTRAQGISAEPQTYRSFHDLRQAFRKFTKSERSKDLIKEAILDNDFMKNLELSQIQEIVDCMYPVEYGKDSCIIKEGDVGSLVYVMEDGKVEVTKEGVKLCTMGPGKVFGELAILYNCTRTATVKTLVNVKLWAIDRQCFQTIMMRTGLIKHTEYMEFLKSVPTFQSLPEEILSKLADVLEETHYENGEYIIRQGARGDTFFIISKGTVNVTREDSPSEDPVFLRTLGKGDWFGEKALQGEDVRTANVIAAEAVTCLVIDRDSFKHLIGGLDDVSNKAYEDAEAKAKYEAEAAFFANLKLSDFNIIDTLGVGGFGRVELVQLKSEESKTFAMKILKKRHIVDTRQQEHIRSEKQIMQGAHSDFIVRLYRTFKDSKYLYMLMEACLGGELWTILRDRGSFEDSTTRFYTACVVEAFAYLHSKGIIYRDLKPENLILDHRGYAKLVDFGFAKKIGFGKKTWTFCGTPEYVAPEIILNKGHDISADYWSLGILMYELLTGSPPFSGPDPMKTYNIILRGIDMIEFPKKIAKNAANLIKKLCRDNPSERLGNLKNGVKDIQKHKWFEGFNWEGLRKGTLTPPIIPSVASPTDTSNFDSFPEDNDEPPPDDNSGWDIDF

[3] = target: Bone morphogenetic protein receptor type-1A (Homo sapiens, UniProt P36894); test: Selectivity interaction (Kinase panel (Invitrogen)) EUB0000639a BMPR1A; conditions: at 200 nM
[4] = target: Mitogen-activated protein kinase 9 (Homo sapiens, UniProt P45984); test: Selectivity interaction (ActivX KiNativ screen (kinase selectivity in THP-1 cell lysates)) EUB0000639a MAPK9; type: subcellular; conditions: lysate, at 1 µM
[5] = target: T2, Megakaryocyte-associated tyrosine-protein kinase (Homo sapiens) (UniProt P42679); test: Selectivity interaction (KinomeScan (DiscoverX)) EUB0000655a MATK; conditions: at 10 µM
T2 sequence (whole entry): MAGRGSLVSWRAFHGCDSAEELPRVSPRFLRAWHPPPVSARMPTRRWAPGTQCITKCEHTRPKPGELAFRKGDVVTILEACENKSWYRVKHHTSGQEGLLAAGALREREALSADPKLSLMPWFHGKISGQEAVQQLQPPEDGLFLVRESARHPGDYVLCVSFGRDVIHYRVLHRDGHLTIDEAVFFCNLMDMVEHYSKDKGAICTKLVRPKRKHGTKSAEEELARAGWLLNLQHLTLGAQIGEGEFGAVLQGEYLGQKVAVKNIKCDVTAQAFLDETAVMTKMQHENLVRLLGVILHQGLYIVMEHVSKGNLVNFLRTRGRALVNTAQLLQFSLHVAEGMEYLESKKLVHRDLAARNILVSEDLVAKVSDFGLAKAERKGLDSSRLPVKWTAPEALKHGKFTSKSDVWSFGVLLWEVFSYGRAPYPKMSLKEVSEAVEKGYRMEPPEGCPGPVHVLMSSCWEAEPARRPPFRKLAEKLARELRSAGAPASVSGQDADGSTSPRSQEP

[6] = target: T3, Serine/threonine-protein kinase Nek3 (Homo sapiens) (UniProt P51956); test: Selectivity interaction (KinomeScan (DiscoverX)) EUB0000045b NEK3
T3 sequence (whole entry): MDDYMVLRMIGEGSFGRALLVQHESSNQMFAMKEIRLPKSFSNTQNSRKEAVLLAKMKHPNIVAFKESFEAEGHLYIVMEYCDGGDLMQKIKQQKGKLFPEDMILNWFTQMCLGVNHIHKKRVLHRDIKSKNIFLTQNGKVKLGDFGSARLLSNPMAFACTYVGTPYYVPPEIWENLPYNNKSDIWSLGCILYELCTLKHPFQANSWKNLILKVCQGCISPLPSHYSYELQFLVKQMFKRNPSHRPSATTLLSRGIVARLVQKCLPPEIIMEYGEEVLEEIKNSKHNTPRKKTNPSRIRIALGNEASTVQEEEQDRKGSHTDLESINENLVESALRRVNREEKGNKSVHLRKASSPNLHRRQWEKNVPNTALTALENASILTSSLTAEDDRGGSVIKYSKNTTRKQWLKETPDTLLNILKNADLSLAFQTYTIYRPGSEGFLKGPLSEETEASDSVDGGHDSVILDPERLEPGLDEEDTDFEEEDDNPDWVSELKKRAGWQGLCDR

[7] = target: Mitogen-activated protein kinase 8 (Homo sapiens, UniProt P45983); test: Selectivity interaction (KinomeScan (DiscoverX)) EUB0000045b MAPK8
[8] = target: Calcium/calmodulin-dependent protein kinase type 1D (Homo sapiens) (UniProt Q8IU85); test: Selectivity interaction (KinomeScan (DiscoverX)) EUB0000045b CAMK1D
[9] = target: Rho-associated protein kinase 1 (Homo sapiens) (UniProt Q13464); test: Selectivity interaction (KinomeScan (DiscoverX)) EUB0000045b ROCK1
[10] = target: Tyrosine-protein kinase HCK (Homo sapiens) (UniProt P08631); test: Selectivity interaction (KinomeScan (DiscoverX)) EUB0000092b HCK; conditions: at 10 µM
[11] = target: Proto-oncogene tyrosine-protein kinase Src (Homo sapiens, UniProt P12931); test: Selectivity interaction (ActivX KiNativ screen (ex vivo kinase selectivity in human PBMCs)) EUB0001619a SRC; type: cell-based; conditions: PBMC, at 1 µM
[12] = target: T4, TGF-beta receptor type-1 (Homo sapiens) (UniProt P36897); test: Selectivity interaction (KinomeScan (DiscoverX)) EUB0001619a TGFBR1; conditions: at 1 µM
T4 sequence (whole entry): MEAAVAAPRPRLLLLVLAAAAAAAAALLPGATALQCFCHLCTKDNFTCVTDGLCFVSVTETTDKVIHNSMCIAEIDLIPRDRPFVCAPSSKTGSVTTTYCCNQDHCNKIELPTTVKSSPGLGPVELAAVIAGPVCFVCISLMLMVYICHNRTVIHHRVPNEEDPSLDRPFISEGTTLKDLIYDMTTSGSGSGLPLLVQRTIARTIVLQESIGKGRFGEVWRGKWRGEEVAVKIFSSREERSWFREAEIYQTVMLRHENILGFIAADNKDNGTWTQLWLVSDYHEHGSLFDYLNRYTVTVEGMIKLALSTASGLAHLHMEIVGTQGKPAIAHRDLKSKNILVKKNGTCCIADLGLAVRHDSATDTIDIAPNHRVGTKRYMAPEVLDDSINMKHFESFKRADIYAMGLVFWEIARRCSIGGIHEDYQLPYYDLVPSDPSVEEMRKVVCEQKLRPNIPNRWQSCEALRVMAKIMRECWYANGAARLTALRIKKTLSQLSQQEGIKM

Chain of Calcium/calmodulin-dependent protein kinase type 1D (Homo sapiens) (Q8IU85 whole entry, looked up): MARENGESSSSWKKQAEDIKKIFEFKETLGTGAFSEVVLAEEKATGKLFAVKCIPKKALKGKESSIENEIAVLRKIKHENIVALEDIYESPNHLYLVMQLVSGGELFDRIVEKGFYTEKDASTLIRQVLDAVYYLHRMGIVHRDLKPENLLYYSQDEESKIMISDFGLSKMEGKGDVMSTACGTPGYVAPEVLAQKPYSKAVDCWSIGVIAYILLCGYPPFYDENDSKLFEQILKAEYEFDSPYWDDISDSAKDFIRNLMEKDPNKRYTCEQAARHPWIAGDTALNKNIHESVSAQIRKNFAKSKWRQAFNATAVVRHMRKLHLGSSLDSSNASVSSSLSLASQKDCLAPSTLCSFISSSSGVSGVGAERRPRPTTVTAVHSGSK
Chain of Rho-associated protein kinase 1 (Homo sapiens) (Q13464 2-1354 limits assumed): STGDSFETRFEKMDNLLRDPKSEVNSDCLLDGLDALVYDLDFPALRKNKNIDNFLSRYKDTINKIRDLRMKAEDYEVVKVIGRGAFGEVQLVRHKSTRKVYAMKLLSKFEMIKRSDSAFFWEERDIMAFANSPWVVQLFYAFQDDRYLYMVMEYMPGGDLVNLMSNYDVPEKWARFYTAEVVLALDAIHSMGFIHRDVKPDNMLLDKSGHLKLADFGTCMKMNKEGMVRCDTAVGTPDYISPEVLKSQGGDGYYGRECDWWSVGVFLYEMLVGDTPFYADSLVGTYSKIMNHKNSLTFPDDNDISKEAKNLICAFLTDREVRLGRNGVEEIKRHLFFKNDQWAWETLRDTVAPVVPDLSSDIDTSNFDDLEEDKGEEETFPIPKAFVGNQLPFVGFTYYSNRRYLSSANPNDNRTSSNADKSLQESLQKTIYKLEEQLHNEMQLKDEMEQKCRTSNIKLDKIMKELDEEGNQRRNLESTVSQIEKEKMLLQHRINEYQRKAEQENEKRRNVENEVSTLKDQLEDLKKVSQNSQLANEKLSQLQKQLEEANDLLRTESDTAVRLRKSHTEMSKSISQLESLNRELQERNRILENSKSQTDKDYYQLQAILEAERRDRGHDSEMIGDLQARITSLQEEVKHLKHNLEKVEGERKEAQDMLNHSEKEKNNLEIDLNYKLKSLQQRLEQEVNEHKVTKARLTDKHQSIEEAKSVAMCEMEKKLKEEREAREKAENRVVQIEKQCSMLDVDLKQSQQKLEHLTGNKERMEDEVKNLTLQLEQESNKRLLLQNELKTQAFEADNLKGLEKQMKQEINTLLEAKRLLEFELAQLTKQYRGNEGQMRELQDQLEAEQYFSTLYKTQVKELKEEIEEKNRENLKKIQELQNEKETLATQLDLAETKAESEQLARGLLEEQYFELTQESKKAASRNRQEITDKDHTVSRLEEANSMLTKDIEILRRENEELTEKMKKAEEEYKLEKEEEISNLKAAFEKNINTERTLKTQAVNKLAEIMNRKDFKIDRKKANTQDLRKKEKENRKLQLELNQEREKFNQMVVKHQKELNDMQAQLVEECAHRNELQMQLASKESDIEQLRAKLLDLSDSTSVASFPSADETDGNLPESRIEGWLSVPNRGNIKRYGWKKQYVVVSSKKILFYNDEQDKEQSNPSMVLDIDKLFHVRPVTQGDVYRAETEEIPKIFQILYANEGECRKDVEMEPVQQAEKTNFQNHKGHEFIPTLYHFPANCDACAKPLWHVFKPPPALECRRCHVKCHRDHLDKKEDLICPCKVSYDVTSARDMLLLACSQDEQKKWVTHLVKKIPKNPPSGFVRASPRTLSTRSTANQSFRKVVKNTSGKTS
Chain of Mitogen-activated protein kinase 8 (P45983 whole entry): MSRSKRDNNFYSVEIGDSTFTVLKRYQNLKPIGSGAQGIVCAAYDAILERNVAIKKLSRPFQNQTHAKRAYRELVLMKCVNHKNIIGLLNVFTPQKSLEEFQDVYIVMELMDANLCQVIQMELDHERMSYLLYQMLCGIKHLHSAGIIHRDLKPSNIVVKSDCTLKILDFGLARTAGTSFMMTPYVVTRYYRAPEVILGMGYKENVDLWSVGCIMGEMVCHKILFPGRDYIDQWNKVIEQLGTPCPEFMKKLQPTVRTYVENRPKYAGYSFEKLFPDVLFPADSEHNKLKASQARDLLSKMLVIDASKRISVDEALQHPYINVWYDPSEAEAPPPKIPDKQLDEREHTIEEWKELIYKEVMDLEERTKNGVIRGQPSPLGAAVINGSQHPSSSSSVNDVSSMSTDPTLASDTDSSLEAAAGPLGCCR
Chain of Proto-oncogene tyrosine-protein kinase Src (P12931 2-536 limits assumed): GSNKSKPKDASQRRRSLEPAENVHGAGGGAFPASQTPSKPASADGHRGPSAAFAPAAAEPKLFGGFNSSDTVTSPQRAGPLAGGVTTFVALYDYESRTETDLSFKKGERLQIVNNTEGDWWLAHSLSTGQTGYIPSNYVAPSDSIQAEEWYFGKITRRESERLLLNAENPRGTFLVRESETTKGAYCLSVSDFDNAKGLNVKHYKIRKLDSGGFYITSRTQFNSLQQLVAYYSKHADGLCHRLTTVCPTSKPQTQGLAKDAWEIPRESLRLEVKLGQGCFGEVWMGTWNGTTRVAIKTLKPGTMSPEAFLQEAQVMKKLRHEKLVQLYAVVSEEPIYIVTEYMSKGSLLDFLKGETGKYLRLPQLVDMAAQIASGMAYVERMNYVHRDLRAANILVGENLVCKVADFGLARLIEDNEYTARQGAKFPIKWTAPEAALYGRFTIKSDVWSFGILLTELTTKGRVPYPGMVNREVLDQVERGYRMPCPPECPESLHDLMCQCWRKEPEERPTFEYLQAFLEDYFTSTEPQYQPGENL
Chain of Tyrosine-protein kinase HCK (Homo sapiens) (P08631 2-526 limits assumed): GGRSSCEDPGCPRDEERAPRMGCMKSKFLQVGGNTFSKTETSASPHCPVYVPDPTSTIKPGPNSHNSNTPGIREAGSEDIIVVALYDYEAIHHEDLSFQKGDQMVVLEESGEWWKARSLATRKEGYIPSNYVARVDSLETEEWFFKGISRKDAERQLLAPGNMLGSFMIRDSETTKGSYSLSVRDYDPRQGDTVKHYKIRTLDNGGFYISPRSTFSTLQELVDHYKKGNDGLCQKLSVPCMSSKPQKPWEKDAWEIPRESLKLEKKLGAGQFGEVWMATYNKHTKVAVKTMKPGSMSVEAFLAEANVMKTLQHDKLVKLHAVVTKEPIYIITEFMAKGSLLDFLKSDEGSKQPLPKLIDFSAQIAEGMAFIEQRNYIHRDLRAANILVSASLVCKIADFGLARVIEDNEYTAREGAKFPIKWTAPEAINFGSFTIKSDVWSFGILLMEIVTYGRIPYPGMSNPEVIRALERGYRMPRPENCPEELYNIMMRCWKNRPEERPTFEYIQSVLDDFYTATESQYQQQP
Chain of Bone morphogenetic protein receptor type-1A (P36894 whole entry): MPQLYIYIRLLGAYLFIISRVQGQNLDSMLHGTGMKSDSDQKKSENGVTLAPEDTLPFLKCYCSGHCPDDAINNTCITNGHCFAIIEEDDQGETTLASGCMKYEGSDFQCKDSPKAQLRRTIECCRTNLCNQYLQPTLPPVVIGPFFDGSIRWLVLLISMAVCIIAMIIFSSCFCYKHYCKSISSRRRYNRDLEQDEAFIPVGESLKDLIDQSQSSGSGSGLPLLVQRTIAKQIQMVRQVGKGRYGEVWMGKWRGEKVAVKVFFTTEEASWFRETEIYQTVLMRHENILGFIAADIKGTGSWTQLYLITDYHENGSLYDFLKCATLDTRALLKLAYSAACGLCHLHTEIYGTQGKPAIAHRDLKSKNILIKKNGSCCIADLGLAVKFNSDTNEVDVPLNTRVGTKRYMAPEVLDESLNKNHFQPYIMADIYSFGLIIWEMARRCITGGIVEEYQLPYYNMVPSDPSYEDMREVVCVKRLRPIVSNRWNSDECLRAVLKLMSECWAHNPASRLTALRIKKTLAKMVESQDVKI
Chain of Fibroblast growth factor receptor 2 (Homo sapiens) (P21802 22-821 limits assumed): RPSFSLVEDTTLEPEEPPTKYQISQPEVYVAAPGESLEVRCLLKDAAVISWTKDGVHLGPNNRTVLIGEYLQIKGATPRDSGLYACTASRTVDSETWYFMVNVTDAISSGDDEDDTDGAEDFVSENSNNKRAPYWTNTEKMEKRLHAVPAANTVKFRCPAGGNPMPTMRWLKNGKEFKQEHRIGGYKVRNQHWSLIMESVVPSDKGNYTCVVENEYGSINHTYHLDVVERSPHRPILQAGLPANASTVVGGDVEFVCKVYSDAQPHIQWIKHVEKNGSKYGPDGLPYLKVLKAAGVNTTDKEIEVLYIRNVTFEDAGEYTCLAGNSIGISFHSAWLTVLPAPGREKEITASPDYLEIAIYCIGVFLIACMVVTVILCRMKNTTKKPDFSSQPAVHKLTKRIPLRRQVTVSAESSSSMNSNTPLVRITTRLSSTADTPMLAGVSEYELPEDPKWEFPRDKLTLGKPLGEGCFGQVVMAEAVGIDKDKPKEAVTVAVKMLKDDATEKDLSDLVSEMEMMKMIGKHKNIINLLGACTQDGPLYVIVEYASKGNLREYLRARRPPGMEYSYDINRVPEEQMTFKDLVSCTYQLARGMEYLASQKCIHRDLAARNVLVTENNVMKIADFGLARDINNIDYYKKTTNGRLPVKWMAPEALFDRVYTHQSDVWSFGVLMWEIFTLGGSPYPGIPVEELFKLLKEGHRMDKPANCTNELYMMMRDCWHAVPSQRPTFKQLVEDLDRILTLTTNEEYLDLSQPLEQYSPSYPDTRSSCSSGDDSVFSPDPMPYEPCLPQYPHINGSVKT
Chain of Mitogen-activated protein kinase 9 (P45984 whole entry, looked up): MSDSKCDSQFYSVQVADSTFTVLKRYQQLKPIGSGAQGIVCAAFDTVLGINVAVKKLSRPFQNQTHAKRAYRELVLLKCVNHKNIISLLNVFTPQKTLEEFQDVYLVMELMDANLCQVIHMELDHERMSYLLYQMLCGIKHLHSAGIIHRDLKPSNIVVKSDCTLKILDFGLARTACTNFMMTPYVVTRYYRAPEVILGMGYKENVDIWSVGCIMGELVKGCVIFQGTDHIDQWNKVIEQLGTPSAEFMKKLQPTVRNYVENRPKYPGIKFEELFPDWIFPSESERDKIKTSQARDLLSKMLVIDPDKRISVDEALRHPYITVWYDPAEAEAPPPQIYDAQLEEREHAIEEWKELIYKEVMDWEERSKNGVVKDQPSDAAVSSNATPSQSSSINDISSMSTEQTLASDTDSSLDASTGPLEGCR

SMILES: CNC(=O)Nc1ccc(-c2nc(N3CC4CCC(C3)O4)c3cnn(C4CCC5(CC4)OCCO5)c3n2)cc1
% of control [1]: 92%

% of control [2]: 100%
SMILES: CCN(CC)CCCCNc1ncc2cc(-c3cc(OC)cc(OC)c3)c(NC(=O)NC(C)(C)C)nc2n1

% of inhibition [3]: 20.8% | % of inhibition [4]: -5.9%
SMILES: CC[C@@H]1[C@H](F)C(=O)N[C@@H]1COc1nccc2cc(C(N)=O)c(OC)cc12 [ZIMLOVISERTIB]

SMILES: CN(C)CCOc1ccc(-c2nc(-c3ccncc3)c(-c3ccc4c(c3)CC/C4=N\O)[nH]2)cc1
% of control [5]: 100%

SMILES: C=CC(=O)Nc1cc(-n2c(=O)ccc3cnc4ccc(-c5ccc(NS(C)(=O)=O)cc5)cc4c32)ccc1C
% of control ([6]; at 1 µM): 98% | % of control ([6]; at 10 µM): 100% | % of control ([7]; at 1 µM): 93% | % of control ([7]; at 10 µM): 14% | % of control ([8]; at 1 µM): 100% | % of control ([8]; at 10 µM): 77% | % of control ([9]; at 1 µM): 56% | % of control ([9]; at 10 µM): 59%

SMILES: CCC(=O)N1CCN(c2ccc(-n3c(=O)ccc4cnc5ccc(-c6cnc7ccccc7c6)cc5c43)cc2C(F)(F)F)CC1
% of control [10]: 77%

SMILES: N#Cc1cccc(-c2c[nH]c3ncnc(N4CCOCC4)c23)c1
% of inhibition [11]: -9% | % of control [12]: 79%
